The source of these data is ChEMBL document CHEMBL1147620, “Estrogen receptor ligands. Part 1: The discovery of flavanoids with subtype selectivity” (Bioorg Med Chem Lett, 2004).

Where only a bound is given, the exact number is not on record here.

The target of one assay is T1, Estrogen receptor (Homo sapiens, UniProt P03372).
T1 sequence (P03372 whole entry): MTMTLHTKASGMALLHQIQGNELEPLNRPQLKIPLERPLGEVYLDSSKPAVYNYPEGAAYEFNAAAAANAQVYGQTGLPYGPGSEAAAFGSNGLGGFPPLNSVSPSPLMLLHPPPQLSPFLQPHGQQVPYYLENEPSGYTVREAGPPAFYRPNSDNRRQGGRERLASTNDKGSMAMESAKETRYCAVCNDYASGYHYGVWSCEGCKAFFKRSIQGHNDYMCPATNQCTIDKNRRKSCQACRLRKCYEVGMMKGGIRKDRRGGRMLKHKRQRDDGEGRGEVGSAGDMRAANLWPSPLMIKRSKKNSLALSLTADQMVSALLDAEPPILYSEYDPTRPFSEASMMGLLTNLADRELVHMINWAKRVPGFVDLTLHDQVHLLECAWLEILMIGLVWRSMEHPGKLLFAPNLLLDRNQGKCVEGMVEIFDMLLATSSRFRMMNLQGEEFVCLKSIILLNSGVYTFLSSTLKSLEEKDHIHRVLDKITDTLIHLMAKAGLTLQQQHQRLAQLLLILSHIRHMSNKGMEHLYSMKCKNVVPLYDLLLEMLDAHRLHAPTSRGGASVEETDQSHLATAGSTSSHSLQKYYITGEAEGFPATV

The target in a further assay is Estrogen receptor beta (Homo sapiens, UniProt Q92731).
Sequence of Estrogen receptor beta (Q92731 whole entry): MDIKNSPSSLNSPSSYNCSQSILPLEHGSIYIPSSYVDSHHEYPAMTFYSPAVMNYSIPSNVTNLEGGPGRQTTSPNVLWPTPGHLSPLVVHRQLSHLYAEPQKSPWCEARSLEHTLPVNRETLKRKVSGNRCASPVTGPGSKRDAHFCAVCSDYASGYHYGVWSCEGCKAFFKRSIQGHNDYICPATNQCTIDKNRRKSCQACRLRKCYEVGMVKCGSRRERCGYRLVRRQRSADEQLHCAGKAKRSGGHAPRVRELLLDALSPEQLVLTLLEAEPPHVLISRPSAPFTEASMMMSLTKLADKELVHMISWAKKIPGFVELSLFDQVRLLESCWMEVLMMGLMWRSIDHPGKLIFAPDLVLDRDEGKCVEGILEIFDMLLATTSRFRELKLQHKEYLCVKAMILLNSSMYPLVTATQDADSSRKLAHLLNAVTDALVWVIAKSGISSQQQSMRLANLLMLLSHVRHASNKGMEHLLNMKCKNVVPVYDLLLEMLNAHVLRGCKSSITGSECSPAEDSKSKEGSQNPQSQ

Description for Estrogen receptor beta: Binding affinity against human estrogen receptor beta (ER beta) in competitive binding assay

Broadly, the IC50 is the point on the concentration scale where inhibition reaches its midpoint. `O=C1c2c(Cl)cc(O)cc2O[C@H](c2ccc(OCCN3CCCCC3)cc2)[C@@H]1c1ccc(O)cc1`: the IC50 on Estrogen receptor worked out at 58 nM; against Estrogen receptor beta, 1270 nM.

In the case of `COc1cc([C@@H]2C(=O)c3ccc(O)cc3O[C@@H]2c2ccc(OCCN3CCCCC3)cc2)ccc1O`, the IC50 on Estrogen receptor is 413 nM; at Estrogen receptor beta it was greater than 10000 nM.

Take `CC(C)[C@H]1C(=O)c2ccc(O)cc2O[C@@H]1c1ccc(OCCN2CCCCC2)cc1`: the IC50 came to 109 nM against Estrogen receptor and 930 nM at Estrogen receptor beta.

Regarding `CCCCCc1cc(O)cc2c1C(=O)[C@@H](c1ccc(O)cc1)[C@@H](c1ccc(OCCN3CCCCC3)cc1)O2`, the values for the IC50 against Estrogen receptor and at Estrogen receptor beta were 71 nM and 454 nM, respectively.

In the case of `O=C1c2ccc(O)cc2O[C@H](c2ccc(O)cc2)[C@@H]1c1ccc(O)cc1`, the IC50 at Estrogen receptor was determined as 490 nM; on Estrogen receptor beta, 598 nM.

As for `C[C@@H]1C(=O)c2c(O)cc(O)cc2O[C@@H]1c1ccc(OCCN2CCCCC2)cc1`, the 50% inhibitory concentration (IC50) stood at 551 nM against Estrogen receptor and 1200 nM at Estrogen receptor beta.

Regarding `CCc1cc(O)cc2c1C(=O)[C@@H](c1ccc(O)cc1)[C@@H](c1ccc(OCCN3CCCCC3)cc1)O2`, the half-maximal inhibitory concentration (IC50) was found to be 68 nM against Estrogen receptor and 152 nM against Estrogen receptor beta.

Turning to `Oc1ccc([C@@H]2Cc3ccc(O)cc3O[C@@H]2c2ccc(OCCN3CCCCC3)cc2)cc1`, the IC50 was found to be 6.7 nM against Estrogen receptor and 8.9 nM at Estrogen receptor beta.

For the compound `O=C1c2ccccc2O[C@H](c2ccc(OCCN3CCCCC3)cc2)[C@@H]1c1ccc(O)cc1`, the IC50 on Estrogen receptor was found to be 179 nM; against Estrogen receptor beta, 510 nM.

Take `COc1cc(O)ccc1[C@@H]1C(=O)c2ccc(O)cc2O[C@@H]1c1ccc(OCCN2CCCCC2)cc1`: the figures for the IC50 at Estrogen receptor and on Estrogen receptor beta were 149 nM and 1360 nM, respectively.

Consider `O=C1c2ccc(O)cc2O[C@H](c2ccc(OCCN3CCCCC3)cc2)[C@H]1c1ccc(O)cc1`, for which the results for the IC50 on Estrogen receptor and at Estrogen receptor beta were 49 nM and 1950 nM, respectively.

Consider `Oc1ccc([C@H]2[C@@H](c3ccc(OCCN4CCCCC4)cc3)Oc3cc(O)ccc3[C@@H]2O)cc1`, for which the IC50 at Estrogen receptor was determined as 929 nM; against Estrogen receptor beta it was 7000 nM.

As to `C[C@H]1C(=O)c2ccc(O)cc2O[C@@H]1c1ccc(OCCN2CCCCC2)cc1`, the IC50 against Estrogen receptor was 1410 nM; against Estrogen receptor beta, greater than 10000 nM.

As to `CC(C)[C@@H]1C(=O)c2ccc(O)cc2O[C@@H]1c1ccc(OCCN2CCCCC2)cc1`, the IC50 on Estrogen receptor is 89 nM; at Estrogen receptor beta, 1200 nM.

For `O=C1c2ccc(O)cc2O[C@H](c2ccc(OCCN3CCCCC3)cc2)[C@@H]1c1ccc(O)cc1`, the IC50 against Estrogen receptor came to 31 nM; against Estrogen receptor beta, 2050 nM.

Consider `Cc1cc(O)cc2c1C(=O)[C@@H](c1ccc(O)cc1)[C@@H](c1ccc(OCCN3CCCCC3)cc1)O2`, for which the IC50 came out at 14 nM against Estrogen receptor and 546 nM at Estrogen receptor beta.

Regarding `O=C1c2c(F)cc(O)cc2O[C@H](c2ccc(OCCN3CCCCC3)cc2)[C@@H]1c1ccc(O)cc1`, the IC50 against Estrogen receptor was found to be 105 nM; against Estrogen receptor beta, 5390 nM.

Regarding `Cc1cc([C@@H]2C(=O)c3ccc(O)cc3O[C@@H]2c2ccc(OCCN3CCCCC3)cc2)cc(C)c1O`, the results for the IC50 against Estrogen receptor and at Estrogen receptor beta were 1050 nM and greater than 10000 nM, respectively.

Consider `CCCc1cc(O)cc2c1C(=O)[C@@H](c1ccc(O)cc1)[C@@H](c1ccc(OCCN3CCCCC3)cc1)O2`, for which the IC50 against Estrogen receptor amounted to 652 nM; against Estrogen receptor beta it was 207 nM.

`C[C@@H]1C(=O)c2ccc(O)cc2O[C@@H]1c1ccc(OCCN2CCCCC2)cc1`: the figures for the IC50 at Estrogen receptor and against Estrogen receptor beta were 3560 nM and 5640 nM, respectively.

Take `O/N=C1\c2ccc(O)cc2O[C@H](c2ccc(OCCN3CCCCC3)cc2)[C@@H]1c1ccc(O)cc1`: the IC50 against Estrogen receptor was 1040 nM; against Estrogen receptor beta, 8610 nM.

For the compound `O=C1c2ccc(O)cc2O[C@H](c2ccc(OCCN3CCCCC3)cc2)[C@@H]1c1ccccc1`, the IC50 was 531 nM against Estrogen receptor and 10000 nM on Estrogen receptor beta.
